According to the CheMixHub ionic liquid set:
Values joined by “and” are separate entries in the source; they are usually repeats but may differ in a detail not shown here. Equal entries are not always repeated.

Test: xn = mol fraction of the nth substance listed

CCCCCC[N+]1(C)CCCC1.O=S(=O)([N-]S(=O)(=O)C(F)(F)F)C(F)(F)F + O=S1(=O)CCCC1
101.33 kPa, x1 = 0.5
Details	viscosity [mPa·s]
303.25 K	30.7
313.25 K	22.1
323.25 K	16.4
333.15 K	12.2
343.15 K	9
353.15 K	7.2

CCC(=O)OC + O=S(=O)([N-]S(=O)(=O)C(F)(F)F)C(F)(F)F.[Li+]
298.1 K, 100 kPa, x2 = 0.333
Details	electrical conductivity [S/m]	viscosity [mPa·s]
–	0.23	21.6

O=S(=O)([N-]S(=O)(=O)C(F)(F)F)C(F)(F)F.[Rb+] + O=S(=O)([N-]S(=O)(=O)C(F)(F)F)C(F)(F)F.[Li+]
100 kPa, x2 = 0.25
Details	viscosity [mPa·s]
452.5 K	47.7
463 K	36.9
483.1 K	22.7
523.6 K	10.2
531.9 K	8.55

100 kPa, frequency 1 MHz, x2 = 0.25
Details	electrical conductivity [S/m]
512.5 K	2.82
531.5 K	3.59

CCC(=O)OC + O=S(=O)([N-]S(=O)(=O)C(F)(F)F)C(F)(F)F.[Li+] + COC(=O)OC
298.15 K, 100 kPa
Details	viscosity [mPa·s]
x2 = 0.333, x3 = 0	21.6
x2 = 0.333, x3 = 0.3335	38.6

O=S(=O)([N-]S(=O)(=O)C(F)(F)C(F)(F)F)C(F)(F)F.[Li+] + O=S(=O)([O-])C(F)(F)F.[Li+] + O
101 kPa
Details	electrical conductivity, x1 = 0.1527, x2 = 0.1527 [S/m]	electrical conductivity, x1 = 0.2128, x2 = 0.08265	electrical conductivity, x1 = 0.2128, x2 = 0.1527 [S/m]	electrical conductivity, x1 = 0.2551, x2 = 0.08265	electrical conductivity, x1 = 0.2649, x2 = 0 [S/m]	electrical conductivity, x1 = 0.3106, x2 = 0.1527 [S/m]	viscosity, x1 = 0.2128, x2 = 0.08265 [mPa·s]	viscosity, x1 = 0.2551, x2 = 0.08265 [mPa·s]	viscosity, x1 = 0.2649, x2 = 0 [mPa·s]
283 K	–	0.39 S/m	–	0.195 S/m	0.36	–	186	406	255
293 K	–	0.57 S/m	–	0.298 S/m	0.531	–	110	228	145
298.1 K	0.83	0.675 S/m and 0.68 S/m	0.41	0.362 S/m and 0.37 S/m	0.646	0.16	87	177	114
303 K	–	0.788 S/m	–	0.433 S/m	0.762	–	70.9	141	89.8
313 K	–	1.05 S/m	–	0.599 S/m	1.02	–	48.4	90.1	58.8
323 K	–	1.36 S/m	–	0.791 S/m	1.33	–	33.9	61.6	40.2
333 K	–	1.7 S/m	–	1.02 S/m	1.67	–	24.8	43.2	29.1

C[N+](C)(CCO)CCOCCO.[Cl-] + OCCO
101 kPa, x1 = 0.3333
Details	viscosity [mPa·s]
283.15 K	242.4
288.15 K	177.4
293.15 K	131.9
298.15 K	100.9
303.15 K	78.8
308.15 K	62.2
313.15 K	49.8
318.15 K	40.49
323.15 K	33.3
328.15 K	27.72
333.15 K	23.38
338.15 K	19.82
343.15 K	17
348.15 K	14.73
353.15 K	12.94
